According to US11020395B2, “Cycloalkyl substituted triazole compounds as agonists of the APJ receptor” (AMGEN INC., priority 2016, dated 2021):

Target: human APJ receptor (Homo sapiens (Human), UniProt P35414)
Assay: [35S]GTPγS binding assay on membranes from CHO cells stably expressing human APJ receptor
Type: biochemical
Details: [35S]GTPγS SPA, read-out: Activity hAPJ SPA EC50 IP
Method: [^35S]GTPγS Binding The human APJ receptor was cloned by polymerase chain reaction and the gene encoding the receptor was subcloned in pFLAG-CMV™-3 expression vector (Sigma, Saint Louis, Mo. USA) in-house at Amgen. A GTPγS binding assay was performed on membranes prepared from CHO cells stably expressing human APJ receptor. The optimum experimental conditions for the concentrations of GDP, MgCl2, and NaCl in the assay buffer were initially determined. […] Incubation was at RT for 90 min and the microplate was read using a ViewLux™ ultra HTS Microplate Imager (PerkinElmer, Inc.). All the results presented are means of several independent experiments and analyzed by non-linear regression methods using the commercially available program Prism (GraphPad, San Diego, Calif.) providing the EC50 values detailed in Table 25.

Sequence of human APJ receptor (P35414 whole entry): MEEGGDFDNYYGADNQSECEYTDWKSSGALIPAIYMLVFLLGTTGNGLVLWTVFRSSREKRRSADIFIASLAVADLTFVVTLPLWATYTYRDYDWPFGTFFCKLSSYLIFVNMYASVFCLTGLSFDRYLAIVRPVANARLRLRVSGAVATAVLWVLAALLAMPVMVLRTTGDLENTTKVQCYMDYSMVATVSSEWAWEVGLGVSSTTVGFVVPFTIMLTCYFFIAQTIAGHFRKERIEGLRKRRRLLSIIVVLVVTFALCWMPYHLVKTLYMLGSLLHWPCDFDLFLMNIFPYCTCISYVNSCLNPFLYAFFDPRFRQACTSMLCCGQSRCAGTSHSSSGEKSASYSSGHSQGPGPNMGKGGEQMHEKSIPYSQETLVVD

Compared with `COc1ncnc(OC)c1-n1c(NS(=O)(=O)[C@@H](C)[C@H](OC)c2ncc(Cl)cn2)nnc1[C@H]1C[C@@H](Cl)C1` (single isomer, unassigned) [Example 165.0, (1R,2S)-1-(5-chloropyrimidin-2-yl)-N-(4-(4,6-dimethoxypyrimidin-5-yl)-5-((1s,3R)-3-chlorocyclobutyl)-4H-1,2,4-triazol-3-yl)-1-methoxypropane-2-sulfonamide or (1R,2S)-1-(5-chloropyrimidin-2-yl)-N-(4-(4,6-dimethoxypyrimidin-5-yl)-5-((1r,3S)-3-chlorocyclobutyl)-4H-1,2,4-triazol-3-yl)-1-methoxypropane-2-sulfonamide], `COc1ncnc(OC)c1-n1c(NS(=O)(=O)[C@@H](C)[C@H](OC)c2ncc(Cl)cn2)nnc1[C@H]1C[C@@H](F)C1` (single isomer, unassigned) [Example 163.0, (1R,2S)-1-(5-chloropyrimidin-2-yl)-N-(4-(4,6-dimethoxypyrimidin-5-yl)-5-((1s,3R)-3-fluorocyclobutyl)-4H-1,2,4-triazol-3-yl)-1-methoxypropane-2-sulfonamide or (1R,2S)-1-(5-chloropyrimidin-2-yl)-N-(4-(4,6-dimethoxypyrimidin-5-yl)-5-((1r,3S)-3-fluorocyclobutyl)-4H-1,2,4-triazol-3-yl)-1-methoxypropane-2-sulfonamide] is 4.7-fold higher in EC50: 9.7 nM for the first, 46 nM for the second.

First: COCC(COC)n1c(NS(=O)(=O)[C@@H](C)[C@H](OC)c2ncc(Cl)cn2)nnc1[C@H]1C[C@H](CO)C1 (single isomer, unassigned) [Example 130.0, (1R,2S)-1-(5-chloropyrimidin-2-yl)-N-(4-(1,3-dimethoxypropan-2-yl)-5-((1r,3S)-3-(hydroxymethyl)cyclobutyl)-4H-1,2,4-triazol-3-yl)-1-methoxypropane-2-sulfonamide or (1R,2S)-1-(5-chloropyrimidin-2-yl)-N-(4-(1,3-dimethoxypropan-2-yl)-5-((1s,3R)-3-(hydroxymethyl)cyclobutyl)-4H-1,2,4-triazol-3-yl)-1-methoxypropane-2-sulfonamide]
Second: COc1cccc(OC)c1-n1c(NS(=O)(=O)[C@@H](C)[C@H](OC)c2ncc(Cl)cn2)nnc1[C@H]1C[C@H](F)C1 (single isomer, unassigned) [Example 151.0, (1R,2S)-1-(5-chloropyrimidin-2-yl)-N-(4-(2,6-dimethoxyphenyl)-5-((1r,3S)-3-fluorocyclobutyl)-4H-1,2,4-triazol-3-yl)-1-methoxypropane-2-sulfonamide or (1R,2S)-1-(5-chloropyrimidin-2-yl)-N-(4-(2,6-dimethoxyphenyl)-5-((1r,3R)-3-fluorocyclobutyl)-4H-1,2,4-triazol-3-yl)-1-methoxypropane-2-sulfonamide]
The EC50 of the first is 280-fold higher: 1500 nM for the first, 5.4 nM for the second. The second is the more potent here.

Compared with `COc1ncnc(OC)c1-n1c(NS(=O)(=O)[C@@H](C)[C@H](OC)c2ncc(Cl)cn2)nnc1C1CC(C)(C)C1` [Example 120.0], `COc1ncnc(OC)c1-n1c(NS(=O)(=O)[C@@H](C)[C@H](C)c2ncc(C)cn2)nnc1C1CCCCC1` [Example 5.0, (2S,3R)-N-(5-cyclohexyl-4-(4,6-dimethoxy-5-pyrimidinyl)-4H-1,2,4-triazol-3-yl)-3-(5-methyl-2-pyrimidinyl)-2-butanesulfonamide] is 3-fold higher in EC50: 3.1 nM for the first, 9.4 nM for the second. The first is the more potent here.

`COc1cccc(OC)c1-n1c(NS(=O)(=O)[C@@H](C)[C@H](OC)c2ncc(Cl)cn2)nnc1[C@H]1CC(=O)C1(C)C` (single isomer, unassigned) [Example 197.0, (1R,2S)-1-(5-chloropyrimidin-2-yl)-N-(4-(2,6-dimethoxyphenyl)-5-((R)-2,2-dimethyl-3-oxocyclobutyl)-4H-1,2,4-triazol-3-yl)-1-methoxypropane-2-sulfonamide or (1R,2S)-1-(5-chloropyrimidin-2-yl)-N-(4-(2,6-dimethoxyphenyl)-5-((S)-2,2-dimethyl-3-oxocyclobutyl)-4H-1,2,4-triazol-3-yl)-1-methoxypropane-2-sulfonamide] was tested, and the EC50 was 870 nM.
